In brackets after ≈: the same amount, converted by molar mass.
Assays:
RPMI-7951 = test: Cytotoxicity in RPMI-7951 cell line; assay type: functional, cell-based; conditions: Homo sapiens
HCT-8 = test: Cytotoxicity in HCT-8 cell line; assay type: functional, cell-based; conditions: Homo sapiens
TE-671 = test: Cytotoxicity in TE671 cell line; assay type: functional, cell-based; conditions: Homo sapiens
Oryctolagus cuniculus = species: Oryctolagus cuniculus; test: Compound was tested for inhibition of platelet aggregation induced by arachidonic acid(100 uM) at a dose of 10 ug/mL in rabbit; assay type: functional
P388 = test: Cytotoxicity in P-388 cell line; assay type: functional, cell-based; conditions: Mus musculus

Structure (SMILES)	IC50 (RPMI-7951) [µg/mL]	IC50 (HCT-8) [µg/mL]	IC50 (TE-671) [µg/mL]	Inhibition (Oryctolagus cuniculus) [%]	IC50 (P388) [µg/mL]
COC1=CC(=O)c2[nH]c3cc(O)c(C)cc3c2C1=O	0.22 (≈ 0.855 µM)	0.92 (≈ 3.58 µM)	3.82 (≈ 14.8 µM)		
COC1=CC(=O)c2[nH]c3ccc(C)c(O)c3c2C1=O	0.33 (≈ 1.28 µM)	1.82 (≈ 7.07 µM)	0.17 (≈ 0.661 µM)	100	2.24 (≈ 8.71 µM)

Source: ChEMBL document CHEMBL1127996, “Structure and synthesis of clausenaquinone-a. A novel carbazolequinone alkaloid and bioactive principle from Clausena excavata” (Bioorg Med Chem Lett, 1994)
